This note sets out measurements from patent US8841456B2, “1,5-naphthyridine derivative or salt thereof” (FUJIFILM Corporation, priority 2011, dated 2014).

Experiment [1] deals with Human colon cancer cell line (HCT116). Description: Cell growth inhibition test (Celltiter-Glo). The class given is cell-based. The settings on record: HCT-116, IC50 class, 72 hours culture, viable cells by Celltiter-Glo. As for the experimental part: Evaluation of the cell proliferation inhibitory activity of the compound of the present invention was carried out according to the method below. Human colon cancer cell line (HCT116) McCoy's 5A (INVITROGEN)+Final Concentration 10% FBS+GLUTA Max (INVITROGEN) Celltiter-Glo™ Luminescent Cell Viability Assay (Promega Corporation) HCT116 was seeded on a 96-well culture microplate (Corning Inc.) at 750/well (90 uL/well), and a compound for evaluation (final concentration: 25.00 μM to 0.01 μM, 3-fold common ratio 8 points) was added thereto. After culturing in a CO2 incubator (37° C.) for 72 hours, the number of viable cells were calculated by Celltiter-Glo. For the measurement of luminescence intensity, EnVision (PerkinElmer, Inc.) was used. The inhibitory activity of the compound was calculated using IC50 (50% inhibitory concentration). The IC50 was calculated using XLfit (IDBS). The results of IC50 were evaluated according to the following evaluation criteria.

Another experiment deals with T1, human PI3Kα protein (Homo sapiens, UniProt P42336).
T1 construct: purchased Carna Biosciences, Inc; host or cells: Baculovirus expression system
T1 sequence (P42336 whole entry): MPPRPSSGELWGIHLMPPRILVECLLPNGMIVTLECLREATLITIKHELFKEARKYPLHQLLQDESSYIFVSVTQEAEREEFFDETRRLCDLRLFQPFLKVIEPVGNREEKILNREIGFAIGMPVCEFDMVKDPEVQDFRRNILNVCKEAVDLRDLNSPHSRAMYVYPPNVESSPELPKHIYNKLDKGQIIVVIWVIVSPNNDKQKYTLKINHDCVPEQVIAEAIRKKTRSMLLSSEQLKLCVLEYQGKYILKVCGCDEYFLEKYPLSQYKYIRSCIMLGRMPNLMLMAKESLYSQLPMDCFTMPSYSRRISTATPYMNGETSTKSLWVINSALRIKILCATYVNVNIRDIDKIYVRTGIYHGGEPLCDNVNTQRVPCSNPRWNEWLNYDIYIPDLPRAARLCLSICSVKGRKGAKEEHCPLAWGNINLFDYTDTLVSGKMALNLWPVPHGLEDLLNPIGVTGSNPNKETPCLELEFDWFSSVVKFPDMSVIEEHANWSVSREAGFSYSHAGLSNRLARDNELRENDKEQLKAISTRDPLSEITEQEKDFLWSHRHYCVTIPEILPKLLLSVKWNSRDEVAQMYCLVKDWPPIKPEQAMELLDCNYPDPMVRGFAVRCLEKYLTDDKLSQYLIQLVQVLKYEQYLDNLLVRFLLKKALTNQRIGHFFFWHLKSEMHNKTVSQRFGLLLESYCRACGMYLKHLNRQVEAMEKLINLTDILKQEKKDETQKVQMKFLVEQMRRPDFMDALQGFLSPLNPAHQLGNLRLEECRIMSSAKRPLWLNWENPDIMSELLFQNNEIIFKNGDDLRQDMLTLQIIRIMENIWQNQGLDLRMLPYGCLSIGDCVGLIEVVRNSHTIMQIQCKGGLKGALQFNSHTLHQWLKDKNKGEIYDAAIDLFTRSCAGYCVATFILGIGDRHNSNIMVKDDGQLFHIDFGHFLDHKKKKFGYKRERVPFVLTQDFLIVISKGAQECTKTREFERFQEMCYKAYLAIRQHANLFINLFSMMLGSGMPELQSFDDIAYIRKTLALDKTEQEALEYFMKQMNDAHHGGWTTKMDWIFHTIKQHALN
T1 sequence (P27986 whole entry partner): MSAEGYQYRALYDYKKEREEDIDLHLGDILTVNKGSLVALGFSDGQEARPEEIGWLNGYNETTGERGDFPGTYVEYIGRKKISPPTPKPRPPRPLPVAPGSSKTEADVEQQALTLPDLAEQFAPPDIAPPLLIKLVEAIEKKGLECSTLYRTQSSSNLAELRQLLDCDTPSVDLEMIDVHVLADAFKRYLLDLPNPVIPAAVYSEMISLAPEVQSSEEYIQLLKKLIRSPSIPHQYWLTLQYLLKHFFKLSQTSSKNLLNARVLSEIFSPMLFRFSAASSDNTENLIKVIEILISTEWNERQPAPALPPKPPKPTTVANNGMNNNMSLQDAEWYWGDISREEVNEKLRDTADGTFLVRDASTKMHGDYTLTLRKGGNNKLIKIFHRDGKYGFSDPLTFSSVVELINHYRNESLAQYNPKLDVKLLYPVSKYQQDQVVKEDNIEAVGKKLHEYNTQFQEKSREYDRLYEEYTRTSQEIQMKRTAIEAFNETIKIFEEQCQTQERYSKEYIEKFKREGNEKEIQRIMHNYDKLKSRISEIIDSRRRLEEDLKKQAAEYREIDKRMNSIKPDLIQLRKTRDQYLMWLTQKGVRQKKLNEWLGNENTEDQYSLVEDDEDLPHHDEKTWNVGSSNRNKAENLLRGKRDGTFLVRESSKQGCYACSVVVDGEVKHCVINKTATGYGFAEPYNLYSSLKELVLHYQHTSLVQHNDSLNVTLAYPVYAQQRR
Description: PI3Kα enzyme assay (ADP-Glo kinase assay). The class given is biochemical. The settings on record: IC50 class; 3 nM PI3Kα, 50 μM PIP2, 100 μM ATP; read-out: PI3Kα Inhibitory Activity. The method in brief:
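Baculovirus-expressed biotinylated human PI3Kα (3 nM) preincubated 15 min with compound in Tris pH 7.5, MgCl2, BSA, then reacted 60 min at 25 °C with 50 μM PIP2 and 100 μM ATP. ADP quantified by ADP-Glo luminescence; IC50 calculated.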

The target of experiment [2] is T2, glutathione S-transferase (GST)-fusion human ERK2 protein (Homo sapiens, UniProt P28482).
T2 construct: purchased Carna Biosciences, Inc; host or cells: E. coli expression system
T2 sequence (P28482 whole entry, the tested form may be a part): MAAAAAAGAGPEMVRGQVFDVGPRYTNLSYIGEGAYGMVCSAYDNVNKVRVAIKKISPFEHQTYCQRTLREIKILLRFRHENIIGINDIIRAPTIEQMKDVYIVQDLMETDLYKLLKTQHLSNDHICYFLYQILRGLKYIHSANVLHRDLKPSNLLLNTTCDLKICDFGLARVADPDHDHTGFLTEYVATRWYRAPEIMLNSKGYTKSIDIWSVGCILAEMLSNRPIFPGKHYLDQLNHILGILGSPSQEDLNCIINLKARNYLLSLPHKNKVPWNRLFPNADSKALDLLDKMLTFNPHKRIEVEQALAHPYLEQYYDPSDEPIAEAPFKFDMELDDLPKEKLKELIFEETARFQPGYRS
Description: ERK2 enzyme assay (LabChip mobility shift). The class given is biochemical. Conditions: IC50 class; 2 nM ERK2, 4.25 μM FL-Peptide 8, 43 μM ATP; read-out: ERK2 Inhibitory Activity. The method in brief:
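GST-tagged human ERK2 from E. coli, at 2 nM, was preincubated 15 min at room temperature with compound in Hepes pH 7.5 with MgCl2, DTT and Brij35. The reaction ran 120 min at 25 °C with 4.25 μM FL-Peptide 8 and 43 μM ATP (final). Phosphopeptide fraction was measured by mobility-shift separation to give IC50.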

Bounds are passed on as bounds.

`O=C(Nc1ccc2ncc(N3CCN(c4cccnc4)CC3)cc2n1)NC1CCCC1` [Compound 0157]: the values for the IC50 (in experiment [1]; at human PI3Kα protein; in experiment [2]) were under 1 µM, under 0.1 µM and 0.1 to 1 µM, respectively.
In the same order, the values of `CCCC(C)(C)NC(=O)Nc1ccc2ncc(-c3cnn(CCCN4CCOCC4)c3)cc2n1` [Compound 0182] are under 1 µM, under 0.1 µM and under 0.1 µM.
In the same order, the values of `CN1CCC(n2cc(-c3cnc4ccc(NC(=O)NC5(C)CCCC5)nc4c3)cn2)CC1` [Compound 0255] are under 1 µM, under 0.1 µM and 0.1 to 1 µM.
For the compound `O=C(Nc1ccc2ncc(-c3ccccn3)cc2n1)NC1CCCC1` [Compound 0136], the IC50 in experiment [1] is 1 to 10 µM; on human PI3Kα protein, under 0.1 µM; in experiment [2] it was under 0.1 µM.
`O=C(Nc1ccc2ncc(N3CCOC3=O)cc2n1)NC1CCCC1` [Compound 0046]: the values for the IC50 (in experiment [1]; on human PI3Kα protein; in experiment [2]) were 1 to 10 µM, under 0.1 µM and 0.1 to 1 µM, respectively.
In the same order, the values of `O=C(Nc1ccc2ncc(-c3cccc(CO)c3)cc2n1)NC1CCCC1` [Compound 0041] are 1 to 10 µM, 0.1 to 1 µM and under 0.1 µM.
In the same order, the values of `O=C(Nc1ccc2ncc(N3CCN(c4ccncc4)CC3)cc2n1)NC1CCCC1` [Compound 0158] are under 1 µM, under 0.1 µM and 0.1 to 1 µM.
The matching figures for `CC(=O)N1CCN(c2cnc3ccc(NC(=O)NC4CCCC4)nc3c2)CC1` [Compound 0148]: 1 to 10 µM, under 0.1 µM and 0.1 to 1 µM.
In the case of `CN(C)CC(C)(C)Cn1cc(-c2cnc3ccc(NC(=O)NC4CCCC4)nc3c2)cn1` [Compound 0243], the IC50 in experiment [1] is under 1 µM; at human PI3Kα protein, under 0.1 µM; in experiment [2], 0.1 to 1 µM.
In the case of `CCNC(=O)Nc1ccc2ncc(-c3cn[nH]c3)cc2n1` [Compound 0054], the IC50 on human PI3Kα protein is 0.1 to 1 µM; in experiment [2], under 0.1 µM.
On to `O=C(Nc1ccc2ncc(-c3cnco3)cc2n1)NC1CCCC1` [Compound 0239], for which the IC50 (on human PI3Kα protein; in experiment [2]) was under 0.1 µM in each case.
`O=C(Nc1ccc2ncc(-c3cnn(CCN4CCOCC4)c3)cc2n1)NS(=O)(=O)c1ccccc1` [Compound 0208]: the IC50 (at human PI3Kα protein; in experiment [2]) was over 10 µM each time.
On to `O=C(Nc1ccc2ncc(N3CCN(c4ccccn4)CC3)cc2n1)NC1CCCC1` [Compound 0154], for which the IC50 was under 1 µM in experiment [1], 0.1 to 1 µM at human PI3Kα protein and 0.1 to 1 µM in experiment [2].
As to `COc1cc(-c2cnc3ccc(NC(=O)NC4CCCC4)nc3c2)cnc1OC` [Compound 0014], the IC50 (at human PI3Kα protein; in experiment [2]) was 0.1 to 1 µM each time.
As for `CC1CN(c2cnc3ccc(NC(=O)NC4CCCC4)nc3c2)CCO1` (centres unmarked) [Compound 0090], the IC50 at human PI3Kα protein is under 0.1 µM; in experiment [2], 0.1 to 1 µM.
In the same order, the values of `CC1(NC(=O)Nc2ccc3ncc(-c4cnn(CCCN5CCNCC5)c4)cc3n2)CCCC1` [Compound 0256] are under 0.1 µM and 0.1 to 1 µM.
The matching figures for `C[C@H](C[C@H](C)NC(=O)Nc1ccc2ncc(-c3cn[nH]c3)cc2n1)Oc1ccccc1` [Compound 0162]: 0.1 to 1 µM and 0.1 to 1 µM.
In the same order, the values of `C[C@@H](NC(=O)Nc1ccc2ncc(-c3cn[nH]c3)cc2n1)C1CCCC1` [Compound 0198] are 0.1 to 1 µM and under 0.1 µM.
For the compound `O=C(NCCCCN1CCCC1)Nc1ccc2ncc(-c3cn[nH]c3)cc2n1` [Compound 0177], the figures for the IC50 (at human PI3Kα protein; in experiment [2]) were over 10 µM and 0.1 to 1 µM, respectively.
The matching figures for `O=C(NCC1CCC(F)(F)CC1)Nc1ccc2ncc(-c3cnn(CCCN4CCOCC4)c3)cc2n1` [Compound 0180]: under 0.1 µM and under 0.1 µM.
The matching figures for `O=C(NCCn1cnc2ccccc21)Nc1ccc2ncc(-c3cn[nH]c3)cc2n1` [Compound 0111]: 1 to 10 µM and 0.1 to 1 µM.
The matching figures for `O=C1CN(CCn2cc(-c3cnc4ccc(NC(=O)NC5CCCC5)nc4c3)cn2)CCN1` [Compound 0052]: under 0.1 µM and under 0.1 µM.
In the case of `N#Cc1cnc2ccc(NC(=O)NC3CCCC3)nc2c1` [Compound 0129], the IC50 (at human PI3Kα protein; in experiment [2]) was 1 to 10 µM each time.
Consider `Cc1c(-c2cnn(C)c2)cnc2ccc(NC(=O)NC3CCCC3)nc12` [Compound 0237], for which the IC50 (on human PI3Kα protein; in experiment [2]) was under 0.1 µM each time.
Consider `C[C@H](CN(C)C)Cn1cc(-c2cnc3ccc(NC(=O)NC4CCCC4)nc3c2)cn1` [Compound 0244], for which the IC50 (at human PI3Kα protein; in experiment [2]) was under 0.1 µM in each case.
For `O=C(NCCCCC1OCCO1)Nc1ccc2ncc(-c3cn[nH]c3)cc2n1` [Compound 0174], the IC50 (at human PI3Kα protein; in experiment [2]) was under 0.1 µM each time.
Turning to `CC1(NC(=O)Nc2ccc3ncc(-c4cn[nH]c4)cc3n2)CCC1` [Compound 0195], the IC50 on human PI3Kα protein is under 0.1 µM; in experiment [2], 0.1 to 1 µM.
The matching figures for `CN(C)CCNc1cnc2ccc(NC(=O)NC3CCCC3)nc2c1` [Compound 0011]: 0.1 to 1 µM and 1 to 10 µM.
In the same order, the values of `COCCCNC(=O)Nc1ccc2ncc(-c3cn[nH]c3)cc2n1` [Compound 0100] are 0.1 to 1 µM and under 0.1 µM.
In the same order, the values of `COc1ccc(CCCCNC(=O)Nc2ccc3ncc(-c4cn[nH]c4)cc3n2)cc1` [Compound 0173] are 0.1 to 1 µM and under 0.1 µM.
For the compound `O=C(Nc1ccc2ncc(-c3cnn(CCCN4CCCC4)c3)cc2n1)NC1CCCC1` [Compound 0246], the IC50 (on human PI3Kα protein; in experiment [2]) was under 0.1 µM in each case.
In the case of `C[C@H](C[C@@H](C)Oc1ccccc1)NC(=O)Nc1ccc2ncc(-c3cn[nH]c3)cc2n1` [Compound 0161], the IC50 on human PI3Kα protein is 0.1 to 1 µM; in experiment [2] it was under 0.1 µM.
In the same order, the values of `O=C(NCCCN1CCCCC1)Nc1ccc2ncc(-c3cn[nH]c3)cc2n1` [Compound 0202] are 1 to 10 µM and 0.1 to 1 µM.
The matching figures for `Cc1noc(C)c1-c1cnc2ccc(NC(=O)NC3CCCC3)nc2c1` [Compound 0050]: 0.1 to 1 µM and 0.1 to 1 µM.
With `O=C(Nc1ccc2ncc(-c3cnn(CCN4CCOCC4)c3)cc2n1)NC1CCCC1` [Compound 0004], the IC50 (on human PI3Kα protein; in experiment [2]) was under 0.1 µM throughout.
